Test results reported in PubChem BioAssay AID1745844 (Carcinogenic Potency Database (CPDB), 2022).
Activity calls are given as the source filed them. The rule behind the calls is not given here.

Test system: rodent lifetime carcinogenesis bioassay, tumor incidence TD50
Test: chronic cancer bioassays in animals – CPDB, compiled studies (AID 1745844)
Details: for carcinogen call: lesion: one or several types, types not named

Compound `Cc1ccc(S(=O)(=O)Oc2ccc(N=Nc3ccc(-c4ccc(N=Nc5c(O)ccc6cc(S(=O)(=O)O)cc(S(=O)(=O)O)c56)c(C)c4)cc3C)cc2)cc1` has a TD50 (rat, strain Fischer 344, females, in drinking water, site: Zymbal's gland, lesion: adenoma + carcinoma, dosed 98 weeks, study length 104 weeks) of 15.6 mg/kg/day, a TD50 (rat, strain Fischer 344, females, in drinking water, site: Zymbal's gland, lesion: adenoma, dosed 98 weeks, study length 104 weeks) of 65.4 mg/kg/day and a TD50 (rat, strain Fischer 344, females, in drinking water, site: Zymbal's gland, lesion: carcinoma, dosed 98 weeks, study length 104 weeks) of 18 mg/kg/day. The TD50 (rat, strain Fischer 344, females, in drinking water, site: adrenal medulla, lesion: pheochromocytoma, benign, dosed 98 weeks, study length 104 weeks) was 38.3 mg/kg/day, the TD50 (rat, strain Fischer 344, females, in drinking water, site: adrenal medulla, lesion: pheochromocytoma, malignant + pheochromocytoma, benign, dosed 98 weeks, study length 104 weeks) was 31.6 mg/kg/day and the TD50 (rat, strain Fischer 344, females, in drinking water, site: any site (literature study), lesion: several types, types named in the paper, dosed 98 weeks, study length 104 weeks) was 2.31 mg/kg/day. It also gave a TD50 (rat, strain Fischer 344, females, in drinking water, site: clitoral gland + colon + duodenum + jejunum + liver + lung + pharynx + rectum + skin + tongue + Zymbal's gland, lesion: adenoma + adenoma, bilateral + carcinoma + carcinoma, bilateral + adenomatous polyp + mucinous cystadenocarcinoma + hepatocellular c, dosed 98 weeks, study length 104 weeks) of 3.11 mg/kg/day, a TD50 (rat, strain Fischer 344, females, in drinking water, site: clitoral gland, lesion: adenoma + adenoma, bilateral + carcinoma + carcinoma, bilateral, dosed 98 weeks, study length 104 weeks) of 4.75 mg/kg/day and a TD50 (rat, strain Fischer 344, females, in drinking water, site: clitoral gland, lesion: adenoma + adenoma, bilateral, dosed 98 weeks, study length 104 weeks) of 11.9 mg/kg/day. For the same compound, the TD50 (rat, strain Fischer 344, females, in drinking water, site: clitoral gland, lesion: carcinoma + carcinoma, bilateral, dosed 98 weeks, study length 104 weeks) was 8.97 mg/kg/day, the TD50 (rat, strain Fischer 344, females, in drinking water, site: colon + rectum, lesion: adenomatous polyp + mucinous cystadenocarcinoma, dosed 98 weeks, study length 104 weeks) was 136 mg/kg/day and the TD50 (rat, strain Fischer 344, females, in drinking water, site: duodenum + jejunum, lesion: adenomatous polyp + mucinous cystadenocarcinoma, dosed 98 weeks, study length 104 weeks) was 213 mg/kg/day. For the same compound, the TD50 (rat, strain Fischer 344, females, in drinking water, site: liver, lesion: hepatocellular adenoma + hepatocellular carcinoma + neoplastic nodule, dosed 98 weeks, study length 104 weeks) was 14.2 mg/kg/day, the TD50 (rat, strain Fischer 344, females, in drinking water, site: liver, lesion: hepatocellular carcinoma + neoplastic nodule, dosed 98 weeks, study length 104 weeks) was 14.2 mg/kg/day and the TD50 (rat, strain Fischer 344, females, in drinking water, site: liver, lesion: hepatocellular carcinoma, dosed 98 weeks, study length 104 weeks) was 42.5 mg/kg/day. It also gave a TD50 (rat, strain Fischer 344, females, in drinking water, site: liver, lesion: neoplastic nodule, dosed 98 weeks, study length 104 weeks) of 18 mg/kg/day, a TD50 (rat, strain Fischer 344, females, in drinking water, site: lung, lesion: alveolar/bronchiolar adenoma + alveolar/bronchiolar carcinoma, dosed 98 weeks, study length 104 weeks) of 23.6 mg/kg/day and a TD50 (rat, strain Fischer 344, females, in drinking water, site: lung, lesion: alveolar/bronchiolar adenoma, dosed 98 weeks, study length 104 weeks) of 26.3 mg/kg/day. The TD50 (rat, strain Fischer 344, females, in drinking water, site: mammary gland, lesion: adenocarcinoma, dosed 98 weeks, study length 104 weeks) was 40.6 mg/kg/day, the TD50 (rat, strain Fischer 344, females, in drinking water, site: mammary gland, lesion: adenoma, dosed 98 weeks, study length 104 weeks) was 67 mg/kg/day and the TD50 (rat, strain Fischer 344, females, in drinking water, site: mammary gland, lesion: fibroadenoma, dosed 98 weeks, study length 104 weeks) was 11.4 mg/kg/day. The TD50 (rat, strain Fischer 344, females, in drinking water, site: multiple organs, lesion: leukemia + mononuclear-cell leukemia, dosed 98 weeks, study length 104 weeks) was 9.44 mg/kg/day, the TD50 (rat, strain Fischer 344, females, in drinking water, site: pharynx + tongue, lesion: squamous-cell carcinoma + squamous-cell papilloma, dosed 98 weeks, study length 104 weeks) was 31.4 mg/kg/day and the TD50 (rat, strain Fischer 344, females, in drinking water, site: pharynx + tongue, lesion: squamous-cell carcinoma, dosed 98 weeks, study length 104 weeks) was 227 mg/kg/day. For the same compound, the TD50 (rat, strain Fischer 344, females, in drinking water, site: pharynx + tongue, lesion: squamous-cell papilloma, dosed 98 weeks, study length 104 weeks) was 36.5 mg/kg/day, the TD50 (rat, strain Fischer 344, females, in drinking water, site: pharynx, lesion: squamous-cell papilloma, dosed 98 weeks, study length 104 weeks) was 72.4 mg/kg/day and the TD50 (rat, strain Fischer 344, females, in drinking water, site: pituitary gland, lesion: pars distalis adenoma, dosed 98 weeks, study length 104 weeks) was 11.1 mg/kg/day. It also gave a TD50 (rat, strain Fischer 344, females, in drinking water, site: skin, lesion: basal-cell adenoma + basal-cell carcinoma, dosed 98 weeks, study length 104 weeks) of 21.9 mg/kg/day, a TD50 (rat, strain Fischer 344, females, in drinking water, site: skin, lesion: basal-cell adenoma, dosed 98 weeks, study length 104 weeks) of 28.2 mg/kg/day and a TD50 (rat, strain Fischer 344, females, in drinking water, site: skin, lesion: squamous-cell carcinoma + squamous-cell papilloma, dosed 98 weeks, study length 104 weeks) of 49.7 mg/kg/day. For the same compound, the TD50 (rat, strain Fischer 344, females, in drinking water, site: skin, lesion: squamous-cell carcinoma, dosed 98 weeks, study length 104 weeks) was 57.3 mg/kg/day, the TD50 (rat, strain Fischer 344, females, in drinking water, site: subcutaneous tissue, lesion: fibrosarcoma + fibroma, dosed 98 weeks, study length 104 weeks) was 78.2 mg/kg/day and the TD50 (rat, strain Fischer 344, females, in drinking water, site: thyroid gland, lesion: c-cell adenoma, dosed 98 weeks, study length 104 weeks) was 48.7 mg/kg/day. For the same compound, the TD50 (rat, strain Fischer 344, females, in drinking water, site: thyroid gland, lesion: follicular-cell adenoma + follicular-cell carcinoma, dosed 98 weeks, study length 104 weeks) was 28.8 mg/kg/day, the TD50 (rat, strain Fischer 344, females, in drinking water, site: thyroid gland, lesion: follicular-cell adenoma, dosed 98 weeks, study length 104 weeks) was 53.5 mg/kg/day and the TD50 (rat, strain Fischer 344, females, in drinking water, site: thyroid gland, lesion: follicular-cell carcinoma, dosed 98 weeks, study length 104 weeks) was 68.9 mg/kg/day. It also gave a TD50 (rat, strain Fischer 344, females, in drinking water, site: tongue, lesion: squamous-cell carcinoma + squamous-cell papilloma, dosed 98 weeks, study length 104 weeks) of 65.7 mg/kg/day, a TD50 (rat, strain Fischer 344, females, in drinking water, site: tongue, lesion: squamous-cell papilloma, dosed 98 weeks, study length 104 weeks) of 75 mg/kg/day and a TD50 (rat, strain Fischer 344, females, in drinking water, site: uterus, lesion: endometrial stromal polyp + endometrial stromal sarcoma, dosed 98 weeks, study length 104 weeks) of 16.4 mg/kg/day. It also gave a TD50 (rat, strain Fischer 344, females, in drinking water, site: uterus, lesion: endometrial stromal polyp, dosed 98 weeks, study length 104 weeks) of 20.1 mg/kg/day, a TD50 (rat, strain Fischer 344, males, in drinking water, site: Zymbal's gland, lesion: adenoma + carcinoma, dosed 104 weeks, study length 104 weeks) of 27 mg/kg/day and a TD50 (rat, strain Fischer 344, males, in drinking water, site: Zymbal's gland, lesion: carcinoma, dosed 104 weeks, study length 104 weeks) of 29.8 mg/kg/day. It also gave a TD50 (rat, strain Fischer 344, males, in drinking water, site: adrenal medulla, lesion: pheochromocytoma benign, bilateral + pheochromocytoma, malignant + pheochromocytoma, benign, dosed 104 weeks, study length 104 weeks) of 5.94 mg/kg/day, a TD50 (rat, strain Fischer 344, males, in drinking water, site: adrenal medulla, lesion: pheochromocytoma, benign, dosed 104 weeks, study length 104 weeks) of 6.69 mg/kg/day and a TD50 (rat, strain Fischer 344, males, in drinking water, site: any site (literature study), lesion: several types, types named in the paper, dosed 104 weeks, study length 104 weeks) of 3.23 mg/kg/day. It also gave a TD50 (rat, strain Fischer 344, males, in drinking water, site: liver + skin + Zymbal's gland, lesion: hepatocellular carcinoma + neoplastic nodule + basal-cell adenoma + basal-cell carcinoma + keratoacanthoma + sebaceous gland carci, dosed 104 weeks, study length 104 weeks) of 2.8 mg/kg/day, a TD50 (rat, strain Fischer 344, males, in drinking water, site: liver, lesion: hepatocellular adenoma + hepatocellular carcinoma + neoplastic nodule, dosed 104 weeks, study length 104 weeks) of 7.02 mg/kg/day and a TD50 (rat, strain Fischer 344, males, in drinking water, site: liver, lesion: hepatocellular carcinoma + neoplastic nodule, dosed 104 weeks, study length 104 weeks) of 7.02 mg/kg/day. The TD50 (rat, strain Fischer 344, males, in drinking water, site: liver, lesion: hepatocellular carcinoma, dosed 104 weeks, study length 104 weeks) was 20.2 mg/kg/day, the TD50 (rat, strain Fischer 344, males, in drinking water, site: liver, lesion: neoplastic nodule, dosed 104 weeks, study length 104 weeks) was 10.4 mg/kg/day and the TD50 (rat, strain Fischer 344, males, in drinking water, site: lung, lesion: alveolar/bronchiolar adenoma + alveolar/bronchiolar carcinoma, dosed 104 weeks, study length 104 weeks) was 47.2 mg/kg/day. It also gave a TD50 (rat, strain Fischer 344, males, in drinking water, site: lung, lesion: alveolar/bronchiolar adenoma, dosed 104 weeks, study length 104 weeks) of 39 mg/kg/day, a TD50 (rat, strain Fischer 344, males, in drinking water, site: multiple organs, lesion: mononuclear-cell leukemia, dosed 104 weeks, study length 104 weeks) of 12.3 mg/kg/day and a TD50 (rat, strain Fischer 344, males, in drinking water, site: pharynx + tongue, lesion: squamous-cell papilloma, dosed 104 weeks, study length 104 weeks) of 71 mg/kg/day. The TD50 (rat, strain Fischer 344, males, in drinking water, site: skin, lesion: basal-cell adenoma + basal-cell carcinoma, dosed 104 weeks, study length 104 weeks) was 3.3 mg/kg/day, the TD50 (rat, strain Fischer 344, males, in drinking water, site: skin, lesion: basal-cell adenoma, dosed 104 weeks, study length 104 weeks) was 3.58 mg/kg/day and the TD50 (rat, strain Fischer 344, males, in drinking water, site: skin, lesion: basal-cell carcinoma, dosed 104 weeks, study length 104 weeks) was 22.8 mg/kg/day. The TD50 (rat, strain Fischer 344, males, in drinking water, site: skin, lesion: keratoacanthoma, dosed 104 weeks, study length 104 weeks) was 20.4 mg/kg/day, the TD50 (rat, strain Fischer 344, males, in drinking water, site: skin, lesion: sebaceous gland carcinoma + sebaceous adenoma, dosed 104 weeks, study length 104 weeks) was 23.4 mg/kg/day and the TD50 (rat, strain Fischer 344, males, in drinking water, site: skin, lesion: squamous-cell carcinoma + squamous-cell papilloma, dosed 104 weeks, study length 104 weeks) was 12.7 mg/kg/day. For the same compound, the TD50 (rat, strain Fischer 344, males, in drinking water, site: skin, lesion: squamous-cell carcinoma, dosed 104 weeks, study length 104 weeks) was 16.2 mg/kg/day and the TD50 (rat, strain Fischer 344, males, in drinking water, site: testis, lesion: interstitial-cell adenoma, bilateral + interstitial-cell adenoma, dosed 104 weeks, study length 104 weeks) was 3.39 mg/kg/day.
`[Na+]` was tested, and the TD50 (mouse, strain B6C3F1, females, in drinking water, site: liver, lesion: hyperplastic nodule, dosed 104 weeks, study length 104 weeks) was 1.33e+06 mg/kg/day, the TD50 (mouse, strain B6C3F1, females, in drinking water, site: lung, lesion: papillary tumor, dosed 104 weeks, study length 104 weeks) was 4980 mg/kg/day and the TD50 (mouse, strain B6C3F1, males, in drinking water, site: any site (literature study), lesion: several types, types named in the paper, dosed 104 weeks, study length 104 weeks) was 992 mg/kg/day. For the same compound, the TD50 (mouse, strain B6C3F1, males, in drinking water, site: liver, lesion: hemangioma, dosed 104 weeks, study length 104 weeks) was 9550 mg/kg/day, the TD50 (mouse, strain B6C3F1, males, in drinking water, site: liver, lesion: hyperplastic nodule, dosed 104 weeks, study length 104 weeks) was 5970 mg/kg/day and the TD50 (mouse, strain B6C3F1, males, in drinking water, site: lung, lesion: papillary tumor, dosed 104 weeks, study length 104 weeks) was 3740 mg/kg/day. The TD50 (rat, strain ACI, males, in feed, site: forestomach, lesion: papilloma, dosed 52 weeks, study length 52 weeks) was 2660 mg/kg/day, the carcinogen call (rat, strain F344/DuCrj, males, in feed, site: forestomach, dosed 51 weeks, study length 52 weeks) was “negative (inactive)” and the carcinogen call (rat, strain F344/DuCrj, males, in feed, site: stomach, glandular, dosed 51 weeks, study length 52 weeks) was “negative (inactive)”. The TD50 (rat, strain Fischer 344, males, in feed, site: adrenal medulla, lesion: pheochromocytoma, dosed 104 weeks, study length 104 weeks) was 2980 mg/kg/day (inactive) and the carcinogen call (rat, strain Wistar, males, in feed, site: stomach, glandular, dosed 82 weeks, study length 82 weeks) was “negative (inactive)”.
